The values below come from PubChem BioAssay AID743307 (Sanford-Burnham Center for Chemical Genomics, 2014).

The assay deals with Low molecular weight phosphotyrosine protein phosphatase (Homo sapiens) (UniProt P24666). Nature of the assay: LMPTP phosphatase inhibitors, dose response, biochemical, OMFP substrate, fluorescence intensity, set 2 (AID 743307). The note with it: LMPTP-A enzyme, OMFP fluorogenic substrate.
Sequence of Low molecular weight phosphotyrosine protein phosphatase (Homo sapiens) (P24666 whole entry, looked up): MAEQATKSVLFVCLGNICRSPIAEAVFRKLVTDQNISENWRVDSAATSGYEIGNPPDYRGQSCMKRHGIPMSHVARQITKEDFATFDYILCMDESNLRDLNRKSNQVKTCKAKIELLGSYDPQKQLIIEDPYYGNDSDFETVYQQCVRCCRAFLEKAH

Broadly, the IC50 is the concentration needed to halve the response being measured. In the case of `COc1ccc(-c2cc(NCCCN3CCCCC3)c3ccccc3n2)cc1`, the IC50 was 1.68 µM.
